{"source": "patent US20220364056A1", "about": "“SHORT-CHAIN FATTY ACID PENTANOATE AS ENHANCER FOR CELLULAR THERAPY AND ANTI-TUMOR THERAPY” (PHILIPPS-UNIVERSITÄT MARBURG, priority 2019, published 2022)", "key": {"[1]": {"tested_on": "PancOVA cells", "assay": "adoptive transfer of pretreated OT-I CTLs into mice bearing s.c. PancOVA tumors", "assay_type": "in vivo", "source_text": "We tested this hypothesis in two different subcutaneous (s.c.) tumor models. We injected s.c. B16OVA melanoma cells into CD45.2^+ mice and transferred either control or pentanoate-treated CD45.1^+ OT-I CTLs into recipient animals on day 5 after tumor injection. […] On day 10 after adoptive transfer of CTLs, we detected a higher number of pentanoate-treated cells expressing more effector cytokines TNF-α and IFN-γ in comparison to control OT-I CTLs in tumors, draining LNs and spleen (FIG. 2, E-G). Furthermore, the anti-tumor effects mediated by treatment of CTLs with pentanoate were tested in aggressive pancreatic tumors expressing OVA protein (OVA-expressing Panc02 cells, PancOVA). To this end, 1.5×10^6 PancOVA cells were injected s.c. into CD45.2^+ mice. […] One area of application is CAR therapy.\n(A) Experimental design for the role of SCFAs in promoting anti-tumor immunity. (B-D) After three days of pre-treatment with pentanoate, CD45.1^+ OVA-specific CTLs were transferred intraperitoneally (i.p.) into CD45.2^+ mice bearing 5-days old B16OVA tumors. Tumor volume and tumor mass were analyzed (n=3 mice per group, one of three independent experiments is shown). […]\nTumor weight was determined on day 23 post tumor inoculation. […]"}, "[2]": {"tested_on": "Tc9 and Tc17 cells", "assay": "CD8+ T cells polarized under Tc17- or Tc9-inducing conditions", "assay_type": "cell-based, murine", "conditions": "3 days", "method": "(A and B) CD8^+ T cells isolated from spleens and LNs were polarized under Tc17-inducing conditions and treated with pentanoate for 3 days. Representative contour plots (A) and bar graphs (B) indicate the frequency of IL-17^+ and IFN-γ+ cells. Three similar experiments were performed. (C and D) CD8^+ T cells isolated from spleens and LNs were polarized under Tc9-inducing conditions and treated with pentanoate for 3 days. Representative contour plots (C) and bar graphs (D) are showing the frequency of IL-9^+ and IFN-γ+ cells. Three similar experiments were performed. (E and F) The expression of granzyme B, IFN-γ and Eomes in pentanoate-treated human CTLs was analysed by flow cytometry. Five independent experiments were performed (E). For Eomes, mean fluorescence intensity (MFI) values are shown (F, n=3)."}, "[3]": {"tested_on": "CD8+ cytotoxic T lymphocytes (CTLs)", "assay": "murine CTLs cultivated under suboptimal conditions with SCFAs; cytokines and effector molecules by flow cytometry and ELISA", "assay_type": "cell-based", "source_text": "It is known that the glycolytic metabolic pathway promotes IFN-γ expression and T cell effector function. […] We next investigated if acetylation of H4 was increased at CTL-characteristic loci (Ifnγ, Tbx21 and Eomes) after treatment of CTLs with pentanoate. […] Due to the high level of heterogeneity and plasticity within T lymphocytes, we next investigated possible effects of pentanoate on other CD8^+ T cell subtypes. […] To gain further insight into possible therapeutic strategies, we next investigated the impact of pentanoate on human CD8^+ T lymphocytes.\n(A) Experimental design for the treatment of CTLs with the water-soluble fraction of intestinal content derived from SPF or GF mice. (B and C) Frequencies of IFN-γ- and TNF-α-producing CTLs treated with the extract from luminal content derived from indicated organs. Representative results of two experiments are shown (n=3). (D) ELISA was performed to measure the secretion of TNF-α by CLTs treated as shown in (A). (E) Quantitative measurement of total SCFA amounts in fecal samples of SPF and GF mice (n=5). (F and G) The percentage of IFN-γ^+ TNF-α^+ CTLs treated with the indicated SCFAs for three days (n=3, one of three independent experiments is shown). (H) The secretion of TNF-α from CTLs treated with SCFAs was determined by ELISA (n=3, one of two independent experiments is shown). (I) The fluorogenic HDAC assay was applied to measure the HDAC inhibitory activity of SCFAs on CTLs. The value for unstimulated CTLs was arbitrarily set to 1.0. Four independent experiments were performed. (J and K) Representative contour plots (J) and bar graphs (K) showing the frequency of IFN-γ+ and TNF-α+ cells after pentanoate (2 mM) or VPA (0.5 mM) administration. Three similar experiments were performed. (L and M) The frequency of Eomes- and T-bet-expressing CTLs treated with pentanoate (2 mM) or VPA (0.5 mM) for three days was analyzed by flow cytometry (n=4). (N) ChIP assay showing the acetylation of histone H4 at the promoter regions of Ifnγ and Eomes genes after 24 hours of treatment of CTLs with pentanoate. Data are from pooled chromatin of three mice.\nRepresentative histogram plots (A) and bar graphs (B) are showing the frequency of Annexin V^+ cells. Three similar experiments were performed. (C) Representative effector molecule staining of CD8^+ T cells polarized under suboptimal CTL-inducing conditions, treated with pentanoate or TSA (10 nM Sigma-Aldrich) in presence of 2-DG (1 mM, Sigma-Aldrich) or rapamycin (100 nM, Sigma-Aldrich) for 3 days. Three independent experiments were performed. (D) Western blot analysis of H3Ac and H4Ac in CD8^+ T cells treated with SCFAs for 3 days. (E) Pan-H4Ac ChIP qPCR analysis for Tbx21 promoter accessibility in pentanoate-treated CTLs. Data are from pooled chromatin of three mice. (F and G) CD8^+ T cells isolated from WT and Tbx21^−/− mice were polarized under suboptimal CTL-inducing conditions in presence of increasing pentanoate concentrations. Representative contour plots (F) and bar graphs (G) show the frequency of IFN-γ+ and IL-17A^+ cells. Two similar experiments were performed. […]"}, "[4]": {"target": "HDAC2 (Homo sapiens, UniProt Q92769)", "sequence (Q92769 whole entry, species assumed, canonical isoform)": "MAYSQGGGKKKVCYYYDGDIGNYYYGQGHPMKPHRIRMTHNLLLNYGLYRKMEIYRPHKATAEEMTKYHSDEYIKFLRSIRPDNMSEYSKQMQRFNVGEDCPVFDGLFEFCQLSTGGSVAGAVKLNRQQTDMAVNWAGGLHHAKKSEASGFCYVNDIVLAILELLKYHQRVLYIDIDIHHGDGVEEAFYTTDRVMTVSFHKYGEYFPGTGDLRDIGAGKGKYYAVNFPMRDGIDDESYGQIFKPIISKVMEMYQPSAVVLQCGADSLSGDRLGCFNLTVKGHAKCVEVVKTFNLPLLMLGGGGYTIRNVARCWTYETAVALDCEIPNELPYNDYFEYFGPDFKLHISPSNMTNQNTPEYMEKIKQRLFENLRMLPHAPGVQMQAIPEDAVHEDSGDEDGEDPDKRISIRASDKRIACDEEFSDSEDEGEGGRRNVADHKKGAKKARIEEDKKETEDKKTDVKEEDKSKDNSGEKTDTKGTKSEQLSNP", "assay": "HDAC inhibition of the recombinant HDAC2 isoform", "assay_type": "biochemical", "conditions": "supernatants; different concentrations of SCFAs", "method": "(A) The production of SCFAs, branched-chain fatty acids (BCFAs) and medium-chain fatty acids (MCFAs) by 16 human commensals was measured by GC-MS. All bacteria were grown in vitro until stationary growth phase before the measurement of fatty acids in supernatants. (B and C) HDAC inhibition of recombinant class I and class II HDAC isoforms by cell-free supernatants derived from 16 members of human commensal community. Significance was tested against YCFA medium. (D) Impact of bacterial SCFAs, BCFAs and MSCFAs on the activity of class I and II HDAC enzymes. TSA was used as a control pan-HDAC inhibitor."}}, "data": [{"molecule": "CCCCC(=O)O", "note": "[pentanoate]", "values": [{"measurement": "growth of PancOVA cells in recipient animals", "setting": "[1]; 7.5×10^5 pentanoate-treated OT-I CD8+ T lymphocytes", "value": "completely eliminate the growth"}, {"measurement": "persistence of transferred CTLs within draining LNs and spleen", "setting": "[1]; day 23 after tumor inoculation", "value": "persistence of pentanoate-treated CTLs with high IFN-γ production"}, {"measurement": "phenotype of Tc9 and Tc17 cells", "setting": "[2]", "value": "phenotypical switch towards IFN-γ-producing CTLs"}, {"measurement": "frequencies of TNF-α+ IFN-γ+ cells", "setting": "[3]; CTLs, suboptimal conditions, SCFAs for three days", "value": "substantial increase"}, {"measurement": "secretion of TNF-α by CTLs", "setting": "[3]; ELISA, CTLs treated with SCFAs", "value": "substantial increase"}, {"measurement": "secretion of IL-2 by CTLs", "setting": "[3]; ELISA, indicated time points", "value": "robustly produced IL-2 in a prolonged manner"}, {"measurement": "production of IFN-γ by T-bet-deficient CTLs", "setting": "[3]; Tbx21-/- vs WT, increasing pentanoate concentrations", "value": "partially defective production"}, {"measurement": "expression of TNF-α and IFN-γ in CTLs", "setting": "[3]; pentanoate 2 mM or VPA 0.5 mM", "value": "potently enhanced"}, {"measurement": "CTL-related transcription factors T-bet and Eomes in CD8+ T cells", "setting": "[3]; pentanoate 2 mM or VPA 0.5 mM, three days", "value": "strongly induced"}, {"measurement": "reversal of the effect on granzyme B+IFN-γ+ cells by rapamycin", "setting": "[3]; rapamycin 100 nM co-treatment", "value": "could not be reversed"}, {"measurement": "percentage of CD25+IFN-γ+ cells in in vitro generated CTLs", "setting": "[3]; three days", "value": "strongly enhanced"}, {"measurement": "percentages of granzyme B+IFN-γ+ CD8+ T cells", "setting": "[3]; vs control CTLs, TSA 10 nM, 3 days", "value": "substantially enhanced"}, {"measurement": "inhibition of the HDAC2 isoform", "setting": "[4]", "value": "strongly inhibited"}]}]}
